We go through 3 compounds from patent publication EP1180991B1, “GAMBOGIC ACID DERIVATIVES AS ACTIVATORS OF CASPASES AND INDUCERS OF APOPTOSIS” (Cytovia, Inc., priority 1999, dated 2000).

The test system of one series is SHP-77. The series can be described thus: Inhibition of cell proliferation (GI50) and cell death (LC50), CellTiter 96 (Example 91). Format: cell-based. The following applies: Homo sapiens, SHP77, 48 h. The procedure: (§1) T-47D, ZR-75-1, PC-3, human prostate cancer cell line DU-145, human non-small cell lung cancer cell line A-549, human small cell lung cancer cell line SHP-77, HL-60 and MRC-5 cells were grown and harvested as in Example 90. […] The samples were mixed by agitation and incubated at 37° C for 2-4 h in a 5% CO2-95% humidity incubator. […] This determines the possible background absorbance of the test compounds. No absorbance for gambogic acid or its analogs or derivatives was found at 490 nm. After the 2-4 h incubation, the samples were read for absorbance as above (ATest).
(§2) The samples were mixed by agitation and incubated at 37° C for 2-4 h in a 5% CO2-95% humidity incubator. Absorbance was read as above, (AT=0) defining absorbance for initial cell number used as baseline in GI50 determinations and (Amin) defining absorbance for media alone used as baseline in LC50 determinations.
(§3) GI50 (dose for50%inhibition of cell proliferation) 50 = 100 x [(ATest-AT = 0)/(Amax-AT = 0)] [formula] LC50 (dose for50%cell death) 50 = 100 x [(ATest-Amin)/(AT = 0-Amin)] [formula]

A further series concerns A-549. The series is described as above. The following applies: Homo sapiens, A549, 48 h. Type of series: cell-based. On the procedure: as §1, §2, §3
Series [1] deals with HL-60. The description is as above. Type of series: cell-based. The following applies: Homo sapiens, HL-60, 48 h. The procedure:
as §1, §2, §3

Series [2] concerns T-47D. Described as above. Type of series: cell-based. Conditions: Homo sapiens, T47D, 48 h. The procedure:
as §1, §2, §3

Series [3] deals with PC-3. The description is as above. Type of series: cell-based. The following applies: Homo sapiens, PC-3, 48 h. The procedure: as §1, §2, §3
The test system of series [4] is ZR-75-1. Described as above. Type of series: cell-based. The following applies: Homo sapiens, ZR-75-1, 48 h. The procedure:
as §1, §2, §3

For the next series, the system named is DU-145. Described as above. Conditions: Homo sapiens, DU-145, 48 h. Format: cell-based. The procedure:
as §1, §2, §3

Series [5] concerns MRC-5. Put plainly: Caspase cascade activation assay (Example 90). Format: cell-based, human. The procedure:
(§4) Human breast cancer cell lines T-47D and ZR-75-1, human prostate cancer cell line PC-3, human leukemia cancer cell line HL-60 and human non-transformed fibroblast cell line MRC-5 cells were grown according to media component mixtures designated by The American Type Culture Collection + 10% FCS (Life Technologies, Inc.), in a 5% CO2 -95% humidity incubator at 37° C. T-47D, ZR-75-1 and PC-3 cells were maintained at a cell density between 30 and 80% confluency and for HL-60 at a cell density of 0.1 to 0.6 x 10^6 cells/ml. Cells were harvested at 600xg and resuspended at 0.65 x 10^6 cells/ml into appropriate media + 10% FCS. […] The samples were mixed by agitation and incubated at room temperature.
(§5) The EC50 (nM) was determined by a sigmoidal dose-response calculation (Prism 2.0, GraphPad Software Inc.). Caspase Activity and Potency

Series [6] relates to HL-60. Put plainly: Caspase cascade activation assay (Example 90). Format: cell-based, human. On the procedure: as §4, §5
Series [7] deals with T-47D. The series can be described thus: Caspase cascade activation assay (Example 90). Format: cell-based, human. On the procedure:
as §4, §5

Series [8] relates to PC-3. The series can be described thus: Caspase cascade activation assay (Example 90). Type of series: cell-based, human. On the procedure: as §4, §5
Series [9] deals with ZR-75-1. Put plainly: Caspase cascade activation assay (Example 90). Type of series: cell-based, human. The procedure: as §4, §5
The test system of series [10] is MRC-5. Put plainly: Inhibition of cell proliferation (GI50) and cell death (LC50), CellTiter 96 (Example 91). Format: cell-based, human. On the procedure: as §1, §2, §3
Series [11] deals with several cancer cell lines. Conditions: cited from earlier work.

As usually defined, the GI50 is the concentration at which growth is held to half of that of the control. A high value points to less potent growth inhibition. As usually defined, the EC50 is the concentration that produces a half-maximal response.

Read-outs that look alike come from different tables or passages of the source.

Consider `COC(=O)/C(C)=C\CC12OC(C)(C)C3CC(C=C4C(=O)c5c(O)c6c(c(CC=C(C)C)c5OC431)OC(C)(CCC=C(C)C)C=C6)C2=O` (stereo not shown) [Example 4, Methyl Gambogate], for which the GI50 with SHP-77 was 500 nM; with A-549 it was 500 nM; with HL-60 [1], 50 nM; in the series on T-47D [2], 40 nM; in the series on PC-3 [3], 500 nM; with ZR-75-1 [4] it was 300 nM. The GI50 amounted to 500 nM with DU-145 and 200 nM with MRC-5 [10] (Homo sapiens, MRC5, 48 h). The CC50 in the series on SHP-77 (read-out: LC50) was found to be 500 nM; in the series with A-549 (read-out: LC50), 2000 nM; in the series with HL-60 [1] (read-out: LC50), 500 nM; in the series with T-47D [2] (read-out: LC50), 50 nM; in the series on PC-3 [3] (read-out: LC50) it was 500 nM; with ZR-75-1 [4] (read-out: LC50) it was 500 nM. In addition, the CC50 with DU-145 (read-out: LC50) amounted to 500 nM; in the series with MRC-5 [10] (MRC-5 non-transformed fibroblasts, 48 h, dose for 50% cell death), 500 nM. The EC50 in the series with MRC-5 [5] (Homo sapiens, MRC5, 24 h) amounted to 501 nM; in the series on HL-60 [6] (Homo sapiens, HL-60, 24 h), 339 nM; with T-47D [7] (Homo sapiens, T47D, 24 h) it was 484 nM; in the series with PC-3 [8] (Homo sapiens, PC-3, 24 h) it was 1330 nM; with ZR-75-1 [9] (Homo sapiens, ZR-75-1, 24 h), 1640 nM. Further, the “caspase activity (Ratio)” value in the series on MRC-5 [5] (MRC-5 non-transformed fibroblasts, 24 h incubation, 0.16 to 10 µM final, net RFU ratio to control) is given as 27.8; in the series on HL-60 [6] (HL-60, 24 h incubation, 0.16 to 10 µM final, net RFU ratio to control), 7.7; in the series on T-47D [7] (T-47D, 24 h incubation, 0.16 to 10 µM final, net RFU ratio to control), 16.8; in the series with PC-3 [8] (PC-3, 24 h incubation, 0.16 to 10 µM final, net RFU ratio to control), 3.9; in the series on ZR-75-1 [9] (ZR-75-1, 24 h incubation, 0.16 to 10 µM final, net RFU ratio to control), 14.9.
Consider `CC(C)=CCc1c2c(c(O)c3c1OC14C(=CC5CC1C(C)(C)OC4(C/C=C(/C)C(=O)O)C5=O)C3=O)C=CC(C)(C)O2` (stereo not shown) [Example 19, Morellic Acid], for which the cytotoxicity result in series [11] (several cancer cell lines, Cao et al. 1998) is “significant cytotoxicity”.
On to `CC(C)=CCc1c(O)cc(O)c2c1O[C@]13C(=C[C@@H]4C[C@H]1C(C)(C)O[C@@]3(CC=C(C)C)C4=O)C2=O` [forbesione, reference compound], for which, in series [11], the cytotoxicity result is given as “significant cytotoxicity”.
